In patent US12240857B2 (priority 2017, dated 2025):
Where “and” joins values, the source holds several entries; their conditions need not be identical. Equal values may be shown once. Read-outs that look alike come from different tables or passages of the source.

What was measured:
[1] = test system: EBOV mucin-domain-deleted glycoprotein pseudotyped VSV; test: microbe, parasite or virus in culture; type: cell-based, Zaire ebolavirus; details: Zaire ebolavirus, Vero
[2] = test system: BDBV mucin-domain-deleted glycoprotein pseudotyped VSV; test: microbe, parasite or virus in culture; type: cell-based, Bundibugyo ebolavirus; details: Vesicular stomatitis virus, Vero
[3] = test system: parent VSV virus expressing the native VSV glycoprotein; test: microbe, parasite or virus in culture; type: cell-based; details: Vesicular stomatitis virus, Vero, read-out: EC50 Pseudotype Assays VSV
[4] = test system: full-length Ebola Zaire GP pseudotyped VSV (EBOV_FL); test: microbe, parasite or virus in culture; type: cell-based; details: Zaire ebolavirus, read-out: EC50 Pseudotype Assays EBOV_FL
[5] = test system: full-length Marburgvirus (MARV) GP pseudotyped VSV; test: microbe, parasite or virus in culture; type: cell-based, Marburg marburgvirus; details: for EC50: Orthomarburgvirus, read-out: EC50 Pseudotype Assays MARV
[6] = test system: full-length LASV glycoprotein pseudotyped VSV; test: microbe, parasite or virus in culture; type: cell-based, Lassa virus; details: Vesicular stomatitis virus, read-out: EC50 Pseudotype Assays LASV
wild-type Ebola Zaire [7] = test system: wild-type Ebola Zaire
in vitro [8] = details: African green monkey
in vitro [9] = details: human, microsomes
in vitro [10] = details: mouse, microsomes
in vitro [11] = details: monkey, microsomes
wild-type Ebola Zaire [12] = test: microbe, parasite or virus in culture; details: Zaire ebolavirus, HeLa, read-out: Ebola Zaire EC50
[13] = test system: full-length SUDV GP pseudotyped VSV; test: microbe, parasite or virus in culture; type: cell-based, Sudan ebolavirus; details: Vesicular stomatitis virus, read-out: EC50 Pseudotype Assays SUDV
wild-type Sudan Gulu [14] = test system: wild-type Sudan Gulu
wild-type Sudan Gulu [15] = test: microbe, parasite or virus in culture; details: Sudan ebolavirus, HeLa, read-out: Sudan Gulu EC50
EBOV (Mayinga) [16] = test: microbe, parasite or virus in culture; type: cell-based, Zaire ebolavirus; details: for EC50: Zaire ebolavirus, Vero
EBOV (Mayinga) [17] = test: microbe, parasite or virus in culture; type: cell-based, Zaire ebolavirus; details: for EC90: Zaire ebolavirus
P-gp = P-gp (Homo sapiens, UniProt P08183)
Chain of P-gp (P08183 whole entry): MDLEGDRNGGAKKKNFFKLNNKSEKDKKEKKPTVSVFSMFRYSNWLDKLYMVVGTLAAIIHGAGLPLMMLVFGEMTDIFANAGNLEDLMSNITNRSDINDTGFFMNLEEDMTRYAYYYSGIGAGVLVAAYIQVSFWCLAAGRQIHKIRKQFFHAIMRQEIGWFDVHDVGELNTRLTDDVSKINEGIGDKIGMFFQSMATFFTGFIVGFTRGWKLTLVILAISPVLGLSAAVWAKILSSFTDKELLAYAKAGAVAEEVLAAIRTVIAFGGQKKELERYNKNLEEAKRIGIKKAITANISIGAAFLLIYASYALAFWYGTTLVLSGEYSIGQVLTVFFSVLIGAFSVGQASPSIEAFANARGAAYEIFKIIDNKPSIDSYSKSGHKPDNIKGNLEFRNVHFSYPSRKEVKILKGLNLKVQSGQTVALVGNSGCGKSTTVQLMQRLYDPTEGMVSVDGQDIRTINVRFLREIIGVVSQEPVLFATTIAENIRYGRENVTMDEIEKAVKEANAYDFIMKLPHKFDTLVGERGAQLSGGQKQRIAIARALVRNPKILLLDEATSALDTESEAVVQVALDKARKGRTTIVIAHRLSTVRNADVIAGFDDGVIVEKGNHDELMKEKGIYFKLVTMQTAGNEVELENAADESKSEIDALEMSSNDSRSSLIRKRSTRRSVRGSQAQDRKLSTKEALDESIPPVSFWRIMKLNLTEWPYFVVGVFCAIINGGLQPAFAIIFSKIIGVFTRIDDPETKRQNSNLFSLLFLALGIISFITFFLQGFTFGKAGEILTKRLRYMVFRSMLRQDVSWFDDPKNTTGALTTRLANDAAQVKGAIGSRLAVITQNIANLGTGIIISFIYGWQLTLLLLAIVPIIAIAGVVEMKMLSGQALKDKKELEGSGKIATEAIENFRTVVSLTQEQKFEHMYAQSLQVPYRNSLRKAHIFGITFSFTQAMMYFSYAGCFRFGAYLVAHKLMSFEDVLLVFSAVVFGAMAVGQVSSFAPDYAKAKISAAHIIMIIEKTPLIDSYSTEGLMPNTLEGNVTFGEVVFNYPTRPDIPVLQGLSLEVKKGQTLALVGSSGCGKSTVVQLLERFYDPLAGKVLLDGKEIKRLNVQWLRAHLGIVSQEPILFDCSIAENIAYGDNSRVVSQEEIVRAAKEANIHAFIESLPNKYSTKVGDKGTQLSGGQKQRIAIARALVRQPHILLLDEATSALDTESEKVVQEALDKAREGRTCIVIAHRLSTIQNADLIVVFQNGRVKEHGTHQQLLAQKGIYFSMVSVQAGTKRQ

[18] = test system: human Cyp-p450 enzymes 1A2, 2B6, 2C9, 2C19, 2D6
[19] = in vivo
in vivo = details: male, CD-1, mouse
physchem = details: pH 7, aqueous buffer, kinetic from dmso stock
in vitro [20] = details: human, Caco-2
in vitro [21] = details: human
in vitro [22] = details: mouse
[23] = test system: CYP1A2, CYP2B6, CYP2C9, CYP2C19, CYP2D6; test: in vitro; details: human
human Cyp-p450 3A4 = human Cyp-p450 3A4 (Homo sapiens, UniProt P08684); test: biochemical
Chain of human Cyp-p450 3A4 (P08684 whole entry): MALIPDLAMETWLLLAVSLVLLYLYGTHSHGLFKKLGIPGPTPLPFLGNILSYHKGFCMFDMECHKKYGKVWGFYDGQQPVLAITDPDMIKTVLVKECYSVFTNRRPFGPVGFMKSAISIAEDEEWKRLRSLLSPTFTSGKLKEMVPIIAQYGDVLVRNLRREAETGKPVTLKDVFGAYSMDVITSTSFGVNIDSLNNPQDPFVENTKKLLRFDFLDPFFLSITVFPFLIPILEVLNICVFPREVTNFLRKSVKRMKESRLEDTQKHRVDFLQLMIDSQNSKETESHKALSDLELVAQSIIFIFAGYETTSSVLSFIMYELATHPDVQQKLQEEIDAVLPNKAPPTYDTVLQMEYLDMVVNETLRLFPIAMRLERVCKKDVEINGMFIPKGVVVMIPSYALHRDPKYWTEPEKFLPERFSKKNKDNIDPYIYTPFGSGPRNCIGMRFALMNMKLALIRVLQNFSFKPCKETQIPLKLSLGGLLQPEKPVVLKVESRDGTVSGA

hERG ion channel = hERG ion channel (Homo sapiens, UniProt Q12809); test: biochemical
Chain of hERG ion channel (Q12809 whole entry): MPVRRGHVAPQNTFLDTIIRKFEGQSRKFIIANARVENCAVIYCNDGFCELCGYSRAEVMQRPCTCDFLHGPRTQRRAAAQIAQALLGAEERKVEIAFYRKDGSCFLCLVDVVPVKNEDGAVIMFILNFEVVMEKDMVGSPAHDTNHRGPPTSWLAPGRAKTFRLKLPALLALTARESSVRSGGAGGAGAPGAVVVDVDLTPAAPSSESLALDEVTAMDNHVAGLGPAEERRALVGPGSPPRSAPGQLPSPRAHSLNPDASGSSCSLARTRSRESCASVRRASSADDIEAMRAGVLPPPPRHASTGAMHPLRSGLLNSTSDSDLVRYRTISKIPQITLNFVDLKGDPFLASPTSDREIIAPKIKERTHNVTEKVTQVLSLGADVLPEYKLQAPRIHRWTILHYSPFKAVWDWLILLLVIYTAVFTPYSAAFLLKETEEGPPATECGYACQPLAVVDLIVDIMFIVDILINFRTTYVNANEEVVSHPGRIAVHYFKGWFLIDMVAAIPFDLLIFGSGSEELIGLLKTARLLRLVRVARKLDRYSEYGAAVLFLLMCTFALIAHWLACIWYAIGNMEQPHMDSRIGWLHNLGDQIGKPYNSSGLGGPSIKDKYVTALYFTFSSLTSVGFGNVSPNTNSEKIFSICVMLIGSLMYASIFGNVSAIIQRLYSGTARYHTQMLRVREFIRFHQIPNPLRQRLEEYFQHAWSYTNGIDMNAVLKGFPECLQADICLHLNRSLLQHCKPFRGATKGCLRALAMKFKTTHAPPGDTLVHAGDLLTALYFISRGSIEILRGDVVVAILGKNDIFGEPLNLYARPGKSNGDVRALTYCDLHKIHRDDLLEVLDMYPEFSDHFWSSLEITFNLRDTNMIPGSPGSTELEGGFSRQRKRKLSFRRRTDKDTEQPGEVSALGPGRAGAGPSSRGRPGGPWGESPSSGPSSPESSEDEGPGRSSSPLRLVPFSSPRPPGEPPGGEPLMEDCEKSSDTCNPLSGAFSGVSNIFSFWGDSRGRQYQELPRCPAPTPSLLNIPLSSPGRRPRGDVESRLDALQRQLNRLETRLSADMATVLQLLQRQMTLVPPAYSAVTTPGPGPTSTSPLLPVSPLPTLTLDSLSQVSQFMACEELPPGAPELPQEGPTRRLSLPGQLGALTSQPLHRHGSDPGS

native EBOV virus = details: read-out: published EC50 against native EBOV virus; cited from earlier work
Ebola virus infection = details: human, in vivo; cited from earlier work
[24] = human, in vivo; cited from earlier work
[25] = read-out: EC50 Pseudotype Assays EBOV
[26] = read-out: EC50 Pseudotype Assays BDBV

O=C(NC1CCNCC1)C12CC3CC(C1)CC(c1ccccc1)(C3)C2 [Example A63]
EC50 ([1]; read-out: EC50 EBOV): 80 nM
EC50 [1, 25]: 80 nM
EC50 ([2]; read-out: EC50 BDBV): 80 nM
EC50 [2, 26]: 80 nM
EC50 [3]: > 10000 nM
EC50 [4]: 40 nM
EC50 [5]: 2800 nM
EC50 [6]: > 10000 nM
Ebola Zaire SI (CC50/EC50) (wild-type Ebola Zaire [7]): >16
CC50 (in vitro [8]; CC50): > 10000 nM
CC50 (in vitro [8]; Cytotox CC50): > 10000 nM
half-life (in vitro [9]): 4.3 h
half-life (in vitro [10]): > 3.5 h
half-life (in vitro [11]): 3.95 h
EC50 (wild-type Ebola Zaire [12]): 390 nM

CC12CC3CC(C(=O)NC4CCNCC4)(C1)CC(c1ccccc1)(C3)C2 (stereo not shown) [Example A68]
EC50 ([1]; read-out: EC50 EBOV): 35 nM
EC50 [1, 25]: 40 nM
EC50 ([2]; read-out: EC50 BDBV): 160 nM
EC50 [2, 26]: 170 nM
EC50 [3]: > 10000 nM
EC50 [4]: 40 nM
EC50 [13]: 410 nM
EC50 [5]: 2800 nM
EC50 [6]: > 10000 nM
Ebola Zaire SI (CC50/EC50) (wild-type Ebola Zaire [7]): 134
Sudan Gulu SI (CC50/EC50) (wild-type Sudan Gulu [14]): 181
CC50 (in vitro [8]; CC50): > 10000 nM
CC50 (in vitro [8]; Cytotox CC50): > 10000 nM
half-life (in vitro [9]): 3.12 h
half-life (in vitro [10]): > 4 h
half-life (in vitro [11]): 2.37 h
EC50 (wild-type Ebola Zaire [12]): 180 nM
EC50 (wild-type Sudan Gulu [15]): 130 nM

CC12CC3CC(C(=O)N[C@H]4CC[C@H](N)CC4)(C1)CC(c1ccccc1)(C3)C2.Cl (stereo partly shown) [Example A78]
EC50 ([1]; read-out: EC50 EBOV): 20 nM
EC50 [1, 25]: 20 nM
EC50 ([2]; read-out: EC50 BDBV): 90 nM
EC50 [2, 26]: 90 nM
EC50 [3]: > 10000 nM
EC50 [4]: 50 nM
EC50 [13]: 210 nM
EC50 [5]: 3500 nM
EC50 [6]: > 10000 nM
SI50 (CC50/EC50) (EBOV (Mayinga) [16]): 41.5
EC50 (EBOV (Mayinga) [16]): 1100 nM
SI90 (CC50/EC90) (EBOV (Mayinga) [17]): 8.2
EC90 (EBOV (Mayinga) [17]): 5600 nM
Ebola Zaire SI (CC50/EC50) (wild-type Ebola Zaire [7]): 268.2
Sudan Gulu SI (CC50/EC50) (wild-type Sudan Gulu [14]): 264.3
P-gp substrate ID Caco-2 Permeability (+Verapamil) Paap Mean A > B (P-gp): 8.47 10^−6 cm s^−1
P-gp substrate ID Caco-2 Permeability (+Verapamil) Paap Mean B > A (P-gp): 7.45 10^−6 cm s^−1
Cyp-p450 inhibition IC50, 1A2, 2B6, 2C9, 2C19 [18]: not an inhibitor
F ([19]; male, CD-1, mouse): 72%
CI ([19]; male, CD-1, mouse, iv, 1 mg/kg): 29.72 mL/min/kg
clearance ([19]; mouse): less than hepatic blood flow
Vd (in vivo): 14 L/kg
half-life (in vivo): 7.1 h
half-life (in vivo; 10 mg/kg): 7 h
AUC(0-inf) (in vivo; iv, 1 mg/kg): 561 ng·h/mL
AUC(0-t) (in vivo; iv, 1 mg/kg): 539 ± 23 ng·h/mL
Cmax (in vivo; iv, 1 mg/kg): 129 ± 40 ng/mL
Tmax (in vivo; iv, 1 mg/kg): 0.083 h
Vd (in vivo; iv, 1 mg/kg): 13.9 L/kg
half-life (in vivo; iv, 1 mg/kg): 5.4 h
AUC(0-inf) (in vivo; po, 10 mg/kg): 4040 ng·h/mL
AUC(0-t) (in vivo; po, 10 mg/kg): 3590 ± 576 ng·h/mL
Cmax (in vivo; po, 10 mg/kg): 239 ± 46 ng/mL
Tmax (in vivo; po, 10 mg/kg): 6 h
bioavailability (in vivo; po, 10 mg/kg): 72%
half-life (in vivo; po, 10 mg/kg): 7.1 h
CC50 (in vitro [8]; Cytotox CC50): > 10000 nM
half-life (in vitro [9]): 7.7 h
half-life (in vitro [10]): 4.45 h
half-life (in vitro [11]): > 2 h
solubility (physchem): > 500 µM
Papp A→B (in vitro [20]): 3.61 ×10⁻⁶ cm/s
Papp B→A (in vitro [20]): 15.6 ×10⁻⁶ cm/s
efflux ratio (in vitro [20]): 4.32
fraction unbound (in vitro [21]): 0.025
fraction unbound (in vitro [22]): 0.014
IC50 [23]: ≥ 90000 nM
IC50 (human Cyp-p450 3A4; Cyp-p450 inhibition IC50, 3A4 (Midazolam)): > 100000 nM
IC50 (human Cyp-p450 3A4; Cyp-p450 inhibition IC50, 3A4 (Testosterone)): ~28000 nM and 28000 nM
IC50 (hERG ion channel): > 10000 nM
EC50 (wild-type Ebola Zaire [12]): 210 nM
EC50 (wild-type Sudan Gulu [15]): 210 nM

CCC12CC3CC(C(=O)NC4CCNCC4)(C1)CC(c1ccccc1)(C3)C2 (stereo not shown) [Example A80]
EC50 ([1]; read-out: EC50 EBOV): 10 nM
EC50 [1, 25]: 20 nM
EC50 ([2]; read-out: EC50 BDBV): 50 nM
EC50 [2, 26]: 60 nM
EC50 [3]: > 10000 nM
EC50 [4]: 40 nM
EC50 [13]: 400 nM
EC50 [5]: 1100 nM
EC50 [6]: > 10000 nM
SI50 (CC50/EC50) (EBOV (Mayinga) [16]): 95.6
EC50 (EBOV (Mayinga) [16]): 890 nM
SI90 (CC50/EC90) (EBOV (Mayinga) [17]): 9.6
EC90 (EBOV (Mayinga) [17]): 8900 nM
Ebola Zaire SI (CC50/EC50) (wild-type Ebola Zaire [7]): 137
Sudan Gulu SI (CC50/EC50) (wild-type Sudan Gulu [14]): 130
CC50 (in vitro [8]; CC50): 10000 nM
CC50 (in vitro [8]; Cytotox CC50): > 10000 nM
half-life (in vitro [9]): 1.72 h
half-life (in vitro [10]): > 2 h
half-life (in vitro [11]): 1.48 h
EC50 (wild-type Ebola Zaire [12]): 130 nM
EC50 (wild-type Sudan Gulu [15]): 140 nM

CCC12CC3CC(C(=O)N[C@H]4CC[C@H](N)CC4)(C1)CC(c1ccccc1)(C3)C2 (stereo partly shown) [Example A85]
EC50 ([1]; read-out: EC50 EBOV): 13 nM
EC50 ([2]; read-out: EC50 BDBV): 96 nM
Ebola Zaire SI (CC50/EC50) (wild-type Ebola Zaire [7]): 112
Sudan Gulu SI (CC50/EC50) (wild-type Sudan Gulu [14]): 64
CC50 (in vitro [8]; CC50): 12100 nM
half-life (in vitro [9]): > 2 h
half-life (in vitro [10]): > 2 h
half-life (in vitro [11]): 1.4 h
EC50 (wild-type Ebola Zaire [12]): 100 nM
EC50 (wild-type Sudan Gulu [15]): 180 nM

CC1CCN(CC(O)COc2ccc(C34CC5CC(CC(C5)C3)C4)cc2)CC1 (stereo not shown) [Example D21, 1-[4-(adamantan-1-yl)phenoxy]-3-(4-methylpiperidin-1-yl)propan-2-ol]
EC50 ([1]; 24 h, read-out: EC50 EBOV): 50 nM
EC50 [1, 25]: 50 nM
EC50 ([2]; 24 h, read-out: EC50 BDBV): 110 nM
EC50 [2, 26]: 110 nM
EC50 [3]: 3700 nM
EC50 [4]: 110 nM
EC50 [13]: 410 nM
MARV pseudotyped virus EC50 concentration (in words) [5]: sub-micromolar
EC50 [5]: 360 nM
EC50 [6]: 3000 nM
Ebola Zaire SI (CC50/EC50) (wild-type Ebola Zaire [7]): 48.1
Sudan Gulu SI (CC50/EC50) (wild-type Sudan Gulu [14]): 38.2
CC50 (in vitro [8]; CC50): 1100 nM
CC50 (in vitro [8]; Cytotox CC50): 3700 nM
EC50 (wild-type Ebola Zaire [12]): 150 nM
EC50 (wild-type Sudan Gulu [15]): 190 nM

OCCN1CCN(CC(O)COc2ccc(C34CC5CC(CC(C5)C3)C4)cc2)CC1 (stereo not shown) [Example D24, 1[4-(adamantan-1-yl)phenoxy]-3[4-(2-hydroxyethyl)piperazin-1-yl]propan-2-ol]
EC50 ([1]; 24 h, read-out: EC50 EBOV): 80 nM
EC50 [1, 25]: 90 nM
EC50 ([2]; 24 h, read-out: EC50 BDBV): 270 nM
EC50 [2, 26]: 270 nM
EC50 [3]: > 10000 nM
EC50 [4]: 80 nM
EC50 [13]: 2430 nM
EC50 [5]: > 10000 nM
EC50 [6]: > 10000 nM
Ebola Zaire SI (CC50/EC50) (wild-type Ebola Zaire [7]): 45.6
Sudan Gulu SI (CC50/EC50) (wild-type Sudan Gulu [14]): 78.7
CC50 (in vitro [8]; CC50): 4300 nM
CC50 (in vitro [8]; Cytotox CC50): > 10000 nM
EC50 (wild-type Ebola Zaire [12]): 440 nM
EC50 (wild-type Sudan Gulu [15]): 260 nM

CN(C)CCCNc1nc(C23CC4CC(CC(C4)C2)C3)cs1 [Example D29, (3-{[4-(adamantan-1-yl)-1,3-thiazol-2-yl]amino}propyl) dimethylamine]
EC50 ([1]; 24 h, read-out: EC50 EBOV): 170 nM
EC50 [1, 25]: 170 nM
EC50 ([2]; 24 h, read-out: EC50 BDBV): 160 nM
EC50 [2, 26]: 160 nM
EC50 [3]: > 10000 nM
EC50 [4]: 180 nM
EC50 [13]: 1440 nM
MARV pseudotyped virus EC50 concentration (in words) [5]: sub-micromolar
EC50 [5]: 660 nM
EC50 [6]: > 10000 nM
Ebola Zaire SI (CC50/EC50) (wild-type Ebola Zaire [7]): 66.1
Sudan Gulu SI (CC50/EC50) (wild-type Sudan Gulu [14]): 203
CC50 (in vitro [8]; CC50): 9400 nM
CC50 (in vitro [8]; Cytotox CC50): > 10000 nM
EC50 (wild-type Ebola Zaire [12]): 920 nM
EC50 (wild-type Sudan Gulu [15]): 300 nM

NC(=O)c1nc(F)c[nH]c1=O [favipiravir]
SI90 (CC50/EC90) (EBOV (Mayinga) [17]): 3
EC90 (EBOV (Mayinga) [17]): 333000 nM
EC50 (native EBOV virus): 67000 nM
drop in viral load (Ebola virus infection): 3-4 log
half-life in humans [24]: 1 to 4 h
